Values joined by “and” are separate entries in the source; they are usually repeats but may differ in a detail not shown here. Equal values may be shown once. Inconclusive results and toxic doses are left out.
System: L1210 leukemia ip in BDF1 mice, survival T/C
Assay: NCI In Vivo Anticancer Drug Screen. Data for tumor model L1210 Leukemia (intraperitoneal) in B6D2F1 (BDF1) mice
Conditions: endpoint: mean survival time, higher = longer survival
In short: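 Mice bearing the transplanted tumor received compound or vehicle. Survival of the treated group was divided by that of the vehicle-treated control group to give the ratio.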

[1] = dose: 100.0 mg/kg/injection, schedule: Q04DX003 (ip), vehicle: saline
[2] = dose: 200.0 mg/kg/injection, schedule: Q04DX003 (ip), vehicle: saline
[3] = dose: 400.0 mg/kg/injection, schedule: Q04DX003 (ip), vehicle: saline
[4] = dose: 100.0 mg/kg/injection, schedule: Q04DX003 (ip), vehicle: Klucel (hydroxypropylcellulose) (HPC)
[5] = dose: 200.0 mg/kg/injection, schedule: Q04DX003 (ip), vehicle: Klucel (hydroxypropylcellulose) (HPC)
[6] = dose: 400.0 mg/kg/injection, schedule: Q04DX003 (ip), vehicle: Klucel (hydroxypropylcellulose) (HPC)
[7] = dose: 3.12 mg/kg/injection, schedule: Q01DX009 (ip), vehicle: saline
[8] = dose: 6.25 mg/kg/injection, schedule: Q01DX009 (ip), vehicle: saline
[9] = dose: 100.0 mg/kg/injection, schedule: Q01DX009 (ip), vehicle: saline
[10] = dose: 100.0 mg/kg/injection, schedule: Q04DX003 (ip), vehicle: saline with Tween-80
[11] = dose: 200.0 mg/kg/injection, schedule: Q04DX003 (ip), vehicle: saline with Tween-80
[12] = dose: 100.0 mg/kg/injection, schedule: Q04DX002 (ip), vehicle: Klucel (hydroxypropylcellulose) (HPC)
[13] = dose: 200.0 mg/kg/injection, schedule: Q04DX002 (ip), vehicle: Klucel (hydroxypropylcellulose) (HPC)
[14] = dose: 400.0 mg/kg/injection, schedule: Q04DX002 (ip), vehicle: Klucel (hydroxypropylcellulose) (HPC)

Question: What does the source list for `C[n+]1ccc(NC(=O)c2ccc(NC(=O)c3ccc(C(=O)Nc4ccc(C(=O)Nc5cc[n+](C)cc5)cc4)c(N)c3)cc2)cc1`?
Answer: T/C (dose: 8.1 mg/kg/injection, schedule: Q01DX Z (oral), vehicle: water): 97 % of control; T/C (dose: 10.0 mg/kg/injection, schedule: Q01DX Z (ip), vehicle: water): 123 % of control; T/C (dose: 12.5 mg/kg/injection, schedule: Q01DX Z (ip), vehicle: water): 124 % of control; T/C (dose: 16.3 mg/kg/injection, schedule: Q01DX Z (oral), vehicle: water): 112 % of control; T/C (dose: 20.0 mg/kg/injection, schedule: Q01DX Z (ip), vehicle: water): 162 % of control; T/C (dose: 25.0 mg/kg/injection, schedule: Q01DX Z (ip), vehicle: water): 150 % of control; T/C (dose: 32.5 mg/kg/injection, schedule: Q01DX Z (oral), vehicle: water): 101 % of control; T/C (dose: 40.0 mg/kg/injection, schedule: Q01DX Z (ip), vehicle: water): 91 % of control; T/C (dose: 50.0 mg/kg/injection, schedule: Q01DX Z (ip), vehicle: water): 120 % of control; T/C (dose: 62.0 mg/kg/injection, schedule: Q01DX Z (ip), vehicle: carboxymethylcellulose (CMC)): 118 % of control; T/C (dose: 65.0 mg/kg/injection, schedule: Q01DX Z (oral), vehicle: water): 105 % of control

Question: What does the source list for `O=C/C=C/Nc1ccccc1`?
Answer: T/C [1]: 105 % of control; T/C [2]: 108 % of control; T/C [3]: 100 % of control

Question: With `C=CCOc1cc(C)cc(C)c1C` as the compound, how does the T/C (dose: 50.0 mg/kg/injection, schedule: Q01DX009 (ip), vehicle: Klucel (hydroxypropylcellulose) (HPC)) read?
Answer: 95 % of control

Question: And the T/C (dose: 85.0 mg/kg/injection, schedule: Q04DX003 (ip), vehicle: Klucel (hydroxypropylcellulose) (HPC))?
Answer: 90 % of control

Question: What about the T/C (dose: 100.0 mg/kg/injection, schedule: Q01DX009 (ip), vehicle: Klucel (hydroxypropylcellulose) (HPC)) of the same compound?
Answer: 94 % of control

Question: And the T/C [4]?
Answer: 112 % of control

Question: And the T/C (dose: 135.0 mg/kg/injection, schedule: Q04DX003 (ip), vehicle: Klucel (hydroxypropylcellulose) (HPC))?
Answer: 90 % of control

Question: What about the T/C (dose: 200.0 mg/kg/injection, schedule: Q01DX009 (ip), vehicle: Klucel (hydroxypropylcellulose) (HPC)) of the same compound?
Answer: 89 % of control

Question: And the T/C [5]?
Answer: 88 % of control

Question: What about the T/C (dose: 300.0 mg/kg/injection, schedule: Q04DX003 (ip), vehicle: Klucel (hydroxypropylcellulose) (HPC)) of the same compound?
Answer: 90 % of control

Question: And the T/C [6]?
Answer: 120 % of control

Question: `COc1ccc(/C=N/n2c3ccccc3c3ccccc32)cc1OCCCN(C)C` was tested. Which T/C [7] did it give?
Answer: 98 % of control

Question: And the T/C [8]?
Answer: 102 % of control

Question: And the T/C (dose: 25.0 mg/kg/injection, schedule: Q04DX003 (ip), vehicle: alcohol)?
Answer: 93 % of control

Question: What about the T/C (dose: 50.0 mg/kg/injection, schedule: Q04DX003 (ip), vehicle: alcohol) of the same compound?
Answer: 93 % of control

Question: Which results are given for `CCCCC(CSC#N)SC#N` (stereo not drawn)?
Answer: T/C (dose: 3.13 mg/kg/injection, schedule: Q01DX009 (ip), vehicle: saline with Tween-80): 94 % of control; T/C (dose: 6.25 mg/kg/injection, schedule: Q01DX009 (ip), vehicle: saline with Tween-80): 94 % of control; T/C (dose: 12.5 mg/kg/injection, schedule: Q01DX009 (ip), vehicle: saline with Tween-80): 94 % of control

Question: What does the source list for `CN1CC(COC(=O)CCc2ccc(N(CCCl)CCCl)cc2)C=C2c3cccc4[nH]cc(c34)C[C@H]21` (stereo partly drawn)?
Answer: T/C [7]: 104 % of control; T/C [8]: 108 % of control; T/C (dose: 12.5 mg/kg/injection, schedule: Q01DX009 (ip), vehicle: saline): 110 % of control and 114 % of control; T/C (dose: 25.0 mg/kg/injection, schedule: Q01DX009 (ip), vehicle: saline): 117 % of control; T/C (dose: 25.0 mg/kg/injection, schedule: Q04DX003 (ip), vehicle: saline): 93 % of control and 107 % of control; T/C (dose: 50.0 mg/kg/injection, schedule: Q01DX009 (ip), vehicle: saline): 117 % of control; T/C (dose: 50.0 mg/kg/injection, schedule: Q04DX003 (ip), vehicle: saline): 109 % of control and 117 % of control; T/C [9]: 91 % of control; T/C [1]: 112 % of control; T/C [2]: 124 % of control

Question: With `COc1ccc(CCN)cc1OC` as the compound, how does the T/C (dose: 100.0 mg/kg/injection, schedule: Q04DX002 (ip), vehicle: saline) read?
Answer: 106 % of control

Question: And the T/C (dose: 200.0 mg/kg/injection, schedule: Q04DX002 (ip), vehicle: saline)?
Answer: 100 % of control

Question: And the T/C (dose: 400.0 mg/kg/injection, schedule: Q04DX002 (ip), vehicle: saline)?
Answer: 100 % of control

Question: How did the T/C (dose: 50.0 mg/kg/injection, schedule: Q01DX009 (ip), vehicle: saline with Tween-80) turn out when `CC(C)=CN1CCCCC1` was run?
Answer: 95 % of control

Question: What about the T/C (dose: 100.0 mg/kg/injection, schedule: Q01DX009 (ip), vehicle: saline with Tween-80) of the same compound?
Answer: 101 % of control

Question: And the T/C [10]?
Answer: 98 % of control

Question: And the T/C [11]?
Answer: 96 % of control

Question: What does the source list for `S=C([S-])N1CCCCC1.S=C([S-])N1CCCCC1.[Zn]`?
Answer: T/C (dose: 18.8 mg/kg/injection, schedule: Q04DX003 (ip), vehicle: saline): 92 % of control; T/C (dose: 37.5 mg/kg/injection, schedule: Q04DX003 (ip), vehicle: saline): 92 % of control; T/C (dose: 75.0 mg/kg/injection, schedule: Q01DX001 (ip), vehicle: saline): 88 % of control; T/C (dose: 75.0 mg/kg/injection, schedule: Q04DX003 (ip), vehicle: saline): 96 % of control

Question: For `O=C1C=C(O)c2[nH]c(=O)ccc2C1=O`, which T/C (dose: 5.0 mg/kg/injection, schedule: Q01DX001 (ip), vehicle: saline) is on record?
Answer: 97 % of control

Question: What about the T/C (dose: 10.0 mg/kg/injection, schedule: Q01DX001 (ip), vehicle: saline) of the same compound?
Answer: 101 % of control

Question: What about the T/C (dose: 20.0 mg/kg/injection, schedule: Q01DX001 (ip), vehicle: saline) of the same compound?
Answer: 97 % of control

Question: And the T/C (dose: 40.0 mg/kg/injection, schedule: Q01DX001 (ip), vehicle: saline)?
Answer: 97 % of control

Question: For `CC1(c2cccc(Cl)c2)NC(=O)NC1=O` (stereo not drawn), which T/C [12] is on record?
Answer: 112 % of control

Question: And the T/C [13]?
Answer: 105 % of control

Question: What about the T/C [14] of the same compound?
Answer: 108 % of control

Question: `CC(=O)OC1C=CC(=O)OC1C1OC1C` (stereo not drawn) was tested. Which T/C (dose: 4.0 mg/kg/injection, schedule: Q01DX Z (ip), vehicle: saline) did it give?
Answer: 100 % of control

Question: What about the T/C (dose: 6.0 mg/kg/injection, schedule: Q01DX Z (ip), vehicle: saline) of the same compound?
Answer: 111 % of control

Question: And the T/C (dose: 9.0 mg/kg/injection, schedule: Q01DX Z (ip), vehicle: saline)?
Answer: 110 % of control

Question: What about the T/C (dose: 13.0 mg/kg/injection, schedule: Q01DX Z (ip), vehicle: saline) of the same compound?
Answer: 100 % of control and 108 % of control

Question: What about the T/C (dose: 19.0 mg/kg/injection, schedule: Q01DX Z (ip), vehicle: saline) of the same compound?
Answer: 103 % of control

Question: What about the T/C (dose: 29.0 mg/kg/injection, schedule: Q01DX Z (ip), vehicle: saline) of the same compound?
Answer: 103 % of control

Question: How did the T/C [12] turn out when `Cc1ccc(-n2ccnc2)c(N=Cc2ccc(N(CCCl)CCCl)cc2Cl)c1` was run?
Answer: 102 % of control

Question: What about the T/C [13] of the same compound?
Answer: 102 % of control

Question: And the T/C [14]?
Answer: 102 % of control

Question: With `Cc1nc2nc(N)[nH]c(=O)c2[nH]c1=O` as the compound, how does the T/C [9] read?
Answer: 89 % of control

Question: What about the T/C [1] of the same compound?
Answer: 100 % of control

Question: What about the T/C (dose: 200.0 mg/kg/injection, schedule: Q01DX009 (ip), vehicle: saline) of the same compound?
Answer: 88 % of control

Question: What about the T/C [2] of the same compound?
Answer: 96 % of control

Question: What about the T/C [3] of the same compound?
Answer: 96 % of control

Question: For `O=C1C(N2CC2)=C(N2CC2)C(=O)C(N2CC2)=C1N1CC1`, which T/C (dose: 0.12 mg/kg/injection, schedule: Q01DX001 (ip), vehicle: saline) is on record?
Answer: 112 % of control

Question: What does the source list for `O=C(Nc1ccc(Cl)cc1C(=O)c1ccccc1)c1ccc(Cl)cc1Cl`?
Answer: T/C [12]: 103 % of control; T/C [14]: 89 % of control

Question: Which T/C [12] does the source give for `O=S(=O)(CCCl)c1ccc(Br)cc1` here?
Answer: 101 % of control

Question: And the T/C [13]?
Answer: 97 % of control

Question: And the T/C [14]?
Answer: 101 % of control

Question: For `NC(N)=N/N=C\c1ccc(OCc2ccccc2)cc1`, which T/C (dose: 15.0 mg/kg/injection, schedule: Q01DX Z (ip), vehicle: saline) is on record?
Answer: 96 % of control

Question: What about the T/C (dose: 15.0 mg/kg/injection, schedule: Q01DX Z (oral), vehicle: saline) of the same compound?
Answer: 91 % of control

Question: And the T/C (dose: 30.0 mg/kg/injection, schedule: Q01DX Z (ip), vehicle: saline)?
Answer: 102 % of control

Question: And the T/C (dose: 30.0 mg/kg/injection, schedule: Q01DX Z (oral), vehicle: saline)?
Answer: 94 % of control

Question: And the T/C (dose: 60.0 mg/kg/injection, schedule: Q01DX Z (oral), vehicle: saline)?
Answer: 90 % of control

Question: And the T/C (dose: 120.0 mg/kg/injection, schedule: Q01DX010 (oral), vehicle: saline)?
Answer: 102 % of control

Question: And the T/C (dose: 120.0 mg/kg/injection, schedule: Q01DX Z (oral), vehicle: saline)?
Answer: 89 % of control

Question: What about the T/C (dose: 240.0 mg/kg/injection, schedule: Q01DX010 (oral), vehicle: saline) of the same compound?
Answer: 102 % of control

Question: What about the T/C (dose: 400.0 mg/kg/injection, schedule: Q01DX010 (oral), vehicle: saline) of the same compound?
Answer: 91 % of control

Question: What does the source list for `O=C(CNCc1ccccc1)NC(Cc1ccccc1)c1ccccc1` (stereo not drawn)?
Answer: T/C [4]: 96 % of control; T/C [10]: 101 % of control; T/C [5]: 93 % of control; T/C [11]: 94 % of control; T/C [6]: 94 % of control; T/C (dose: 400.0 mg/kg/injection, schedule: Q04DX003 (ip), vehicle: saline with Tween-80): 94 % of control

— PubChem BioAssay AID248 (DTP/NCI, 2004)
